Measurements taken from US20230339970A1, “CASEIN KINASE 1 DELTA MODULATORS” (priority 2020, published 2023).
pIC50: −log10 of the molar value.

Key:
[1] = target: T1, human CSNK1D (Homo sapiens, UniProt P48730); test: Whole Cell nBRET CSNK1D Binding Assay; settings: living CHO cells stably expressing human CSNK1D tagged with nanoluciferase; NanoBret tracer 130 nM; 2 hours at 37 C
T1 construct: expressed in transfected cells

[2] = target: T2, human recombinant GST cleaved CSNK1D (Homo sapiens, UniProt P48730); test: Purified Enzyme Assay (ADP-Glo CSNK1D Kinase Assay); assay type: biochemical; settings: 2 nM CSNK1D; peptide substrate 150 μM; ATP 20 μM; 45 minutes at room temperature
T2 construct: GST (cleaved yes); purchased University of Dundee clone DU 19064
T2 sequence (P48730 whole entry): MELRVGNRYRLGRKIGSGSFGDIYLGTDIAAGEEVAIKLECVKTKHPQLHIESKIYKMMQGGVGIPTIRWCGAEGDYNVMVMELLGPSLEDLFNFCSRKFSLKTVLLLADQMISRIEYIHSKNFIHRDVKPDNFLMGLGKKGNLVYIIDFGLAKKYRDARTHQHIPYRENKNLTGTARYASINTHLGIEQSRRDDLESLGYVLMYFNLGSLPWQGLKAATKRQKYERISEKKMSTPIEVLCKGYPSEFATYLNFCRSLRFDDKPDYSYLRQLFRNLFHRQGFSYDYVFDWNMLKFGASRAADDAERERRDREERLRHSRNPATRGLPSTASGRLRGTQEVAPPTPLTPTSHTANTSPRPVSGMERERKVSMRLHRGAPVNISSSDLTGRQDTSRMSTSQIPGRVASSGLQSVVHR
Method in brief: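 Percent activity derived from ADP-Glo quantification of ADP produced. Reactions: compound dose-response with human recombinant GST-cleaved CSNK1D, ATP and substrate peptide PLSRTL-pS-VASLPGL, incubated 45 min at room temperature.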

T1 sequence (P48730 whole entry): as above

| SMILES | pIC50 [1] | pIC50 [2] |
| --- | --- | --- |
| Fc1ccc(-c2nn3c(c2-c2c(F)cnc4[nH]ncc24)OCC2(CC2)C3)nc1 [Example 459, 3′-(5-Fluoro-1H-pyrazolo[3,4-b]pyridin-4-yl)-2′-(5-fluoropyridin-2-yl)-5′H,7′H-spiro[cyclopropane-1,6′-pyrazolo[5,1-b][1,3]oxazine]] | 7.10 | 8.40 |
| Fc1ccc(-c2nn3c(c2-c2ccnc4[nH]ncc24)OCC2(CC2)C3)nc1 [Example 460, 2′-(5-Fluoropyridin-2-yl)-3′-(1H-pyrazolo[3,4-b]pyridin-4-yl)-5′H,7′H-spiro[cyclopropane-1,6′-pyrazolo[5,1-b][1,3]oxazine]] | 7.62 | 8.70 |
| Cc1cc(-c2c(-c3ccc(F)cc3)nn3c2OCC2(CC2)C3)c2cn[nH]c2n1 [Example 461, 2′-(4-Fluorophenyl)-3′-(6-methyl-1H-pyrazolo[3,4-b]pyridin-4-yl)-5′H,7′H-spiro[cyclopropane-1,6′-pyrazolo[5,1-b][1,3]oxazine]] | 8.70 | 9.00 |
| Cc1cc(-c2c(-c3ccc(F)cn3)nn3c2OCC2(CC2)C3)c2cn[nH]c2n1 [Example 462, 2′-(5-Fluoropyridin-2-yl)-3′-(6-methyl-1H-pyrazolo[3,4-b]pyridin-4-yl)-5′H,7′H-spiro[cyclopropane-1,6′-pyrazolo[5,1-b][1,3]oxazine]] | 7.70 | 9.00 |
| Cc1nc2[nH]ncc2c(-c2c(-c3ccc(F)cn3)nn3c2OCC2(CC2)C3)c1F [Example 463, 3′-(5-Fluoro-6-methyl-1H-pyrazolo[3,4-b]pyridin-4-yl)-2′-(5-fluoropyridin-2-yl)-5′H,7′H-spiro[cyclopropane-1,6′-pyrazolo[5,1-b][1,3]oxazine]] | 7.70 | 8.70 |
| Cc1cc(-c2c(-c3ccc(F)cn3)nn3c2OCC2(CC2)C3)c2c(Cl)n[nH]c2n1 [Example 464, 3′-(3-Chloro-6-methyl-1H-pyrazolo[3,4-b]pyridin-4-yl)-2′-(5-fluoropyridin-2-yl)-5′H,7′H-spiro[cyclopropane-1,6′-pyrazolo[5,1-b][1,3]oxazine]] | 7.96 | 8.30 |
| Cc1nc(-c2c(-c3ccc(F)cc3)nn3c2OCC2(CC2)C3)c2cn[nH]c2n1 [Example 465, 2′-(4-Fluorophenyl)-3′-(6-methyl-1H-pyrazolo[3,4-d]pyrimidin-4-yl)-5′H,7′H-spiro[cyclopropane-1,6′-pyrazolo[5,1-b][1,3]oxazine]] | 7.46 | 8.52 |
| Fc1ccc(-c2nn3c(c2-c2ccn4nccc4c2)OCC2(CC2)C3)cc1 [Example 466, 2′-(4-Fluorophenyl)-3′-(pyrazolo[1,5-a]pyridin-5-yl)-5′H,7′H-spiro[cyclopropane-1,6′-pyrazolo[5,1-b][1,3]oxazine]] | 7.62 | 7.92 |
| Fc1ccc(-c2nn3c(c2-c2ccnc4[nH]ncc24)OCC(F)(F)C3)cc1 [Example 467, 6,6-Difluoro-2-(4-fluorophenyl)-3-(1H-pyrazolo[3,4-b]pyridin-4-yl)-5,7-dihydropyrazolo[5,1-b][1,3]oxazine] | 7.68 | 8.70 |
| Fc1ccc(-c2nn3c(c2-c2ccnc4cn[nH]c24)OCC(F)(F)C3)cc1 [Example 468, 6,6-Difluoro-2-(4-fluorophenyl)-3-(1H-pyrazolo[4,3-b]pyridin-7-yl)-5,7-dihydropyrazolo[5,1-b][1,3]oxazine] | 6.73 | 7.60 |
| Cc1nc(-c2c(-c3ccc(F)cc3)nn3c2OCC(F)(F)C3)c2cn[nH]c2n1 [Example 469, 6,6-Difluoro-2-(4-fluorophenyl)-3-(6-methyl-1H-pyrazolo[3,4-d]pyrimidin-4-yl)-5,7-dihydropyrazolo[5,1-b][1,3]oxazine] | 6.41 | 7.55 |
| Fc1ccc(-c2nn3c(c2-c2ccnc4[nH]nc(Cl)c24)OCC(F)(F)C3)cc1 [Example 470, 3-(3-Chloro-1H-pyrazolo[3,4-b]pyridin-4-yl)-6,6-difluoro-2-(4-fluorophenyl)-6,7-dihydro-5H-pyrazolo[5,1-b][1,3]oxazine] | 7.77 | 9.00 |
